Laboratory results published in patent US11229643B2, “Combinations of FGFR4 inhibitors and bile acid sequestrants” (NOVARTIS AG, priority 2016, dated 2022).

Experiments:
[1] = test system: 456 kinases; conditions: cited from earlier work
[2] = Dog cross-over study: plasma miR-122 levels (Taqman, standard curve method); format: in vivo, Beagle dogs
Description: Plasma miR-122 levels, a liver enriched microRNA used as biomarker of liver injury (Starkey Lewis P J et al., Clin Pharmacol Ther, 2012, 291-293), were determined. miR-122 is considered as a liver-specific marker.
Small RNA was extracted from 50 μl of plasma by using the miRNeasy/MinElute kit and following the instructions of the manufacturer (Qiagen). Elution of small RNA was realized in 14 μl of nucleic acid-free H2O.
3.2 μl of eluted small RNA was reverse transcribed into cDNA by using the Megaplex RT primer human pool A and B and the Taqman MicorRNA Reverse Transcription kit (Applied Biosystems/Life Technologies, reference 4366596) and following the instructions of the manufacturer.
2.5 μl of cDNA was preamplified by using the Megaplex Preamp primer human pool A and B (Applied Biosystems/Life Technologies, reference 4399201 and 4399233) and the Taqman PreAmp Master mix (Applied Biosystems/Life Technologies, reference 4391128) and following the instructions of the manufacturer.
microRNA miR-122 was amplified from preamplified cDNA by using a commercially available validated Taqman assay (reference 002245) diluted in the Taqman MasterMixII (Applied Biosystems/Life Technologies) and following the instructions of the manufacturer.
The relative quantification of plasmatic microRNA levels was performed using the standard curve method to generate expression values as number of molecules.
Statistical significance of mRNA measurements was assessed using the two-sample unequal variance, two-tailed distribution (hetero-scedastic Student's t-test, Excel). Coefficients of variation with a P value <0.05 were considered to be statistically significant.

[3] = test system: advanced HCC; conditions: patients with advanced HCC; cited from earlier work
[4] = 4-week dog study, ALT and AST; format: in vivo
Text: The maximal increase was 6-fold and ≤2-fold for ALT and AST respectively (relative to pre-dose values), and occurred during week 2 of the study. Generally, there was no further increase in transaminase levels despite continued dosing over the 4-weeks indicating a level of adaptation to these pharmacologically mediated effects.

[5] = Dog cross-over study of Compound A with or without cholestyramine: serum ALT activity; format: in vivo, Beagle dogs; conditions: Cpd A 5 mg/kg/day
Description: Male Beagle dogs were obtained from Marshall BioResources (North Rose, N.Y.). For the study, all animals were nave to treatment. All animals used in the study were healthy and suitable for use. The dose volume for Cpd A and its vehicle was 5 mL/kg. For CHO, the dosing aliquot was dispersed in 75 mL total animal drinking water.
For the study, a dosing paradigm was followed with initial loading dose of either vehicle or CHO on the last day of pretest (day −1), and dosing of either vehicle or CHO on days 1-7.
N-(5-cyano-4-((2-methoxyethyl)amino)pyridin-2-yl)-7-formyl-6-((4-methyl-2-oxopiperazin-1-yl)methyl)-3,4-dihydro-1,8-naphthyridine-1(2H)-carboxamide dosing was initiated on day 8, with the second dosing event of each day for either vehicle or CHO. Food was presented to the animals after the second daily dosing event. Animals were not dosed on day 15. Dosing was restarted on day 24 and the dose groups crossed over on day 38-44, with the last day of dosing on day 44.
Clinical observations, twice-weekly body weights, and daily food consumption determinations were performed.
Fecal samples were collected for bile acid (BA) analysis once during pretest and on days 7, 10, 14, 17, 24, 28, 35, 42, and 49.
Plasma was collected from all animals for bile acid profiling during the study, concurrent with clinical pathology and/or toxicokinetic sampling as follows: at approximately 3 hours postdose (post vehicle, CHO or Cpd A, as appropriate) on days 1, 3, 7, 8, 11, 14, 15, 18, 21, 23, 25, 28, 31, 35, 38, 42, 45, 49, and 52. On days 8, 14, 25, and 39 only, samples were collected at predose and approximately 0.5, 1, 3, 7, and 24 hours postdose (post Cpd A dosing). In addition, on day 44, bile acid biomarker samples were collected at 3, 7, and 24 hours postdose (concurrent with the last toxicokinetic blood collection).

[6] = relative to pre-dose values, during week 2 of 4-week dog study

increase in miR-122 levels, maximum average ([2]; recovery period study day 15-23, at day 21, compared with study day 1-7): ≤ 5.4 fold | increase in miR-122 levels, peak ([2]; recovery study days 45-52, Group 1 animal 1001, day 49): ≤ 22.2 fold | increase in miR-122 levels, peak ([2]; recovery study days 45-52, Group 1 animal 1003, day 49): ≤ 47.9 fold | increase in miR-122 levels, peak ([2]; recovery study days 45-52, Group 1 animal 1005, day 49): ≤ 16.4 fold | increase in miR-122 levels, peak ([2]; recovery study days 45-52, Group 1 animal 1006, day 49): ≤ 40.1 fold | change in miR122 compared to respective controls, overall ([2]; some animals): minimal to moderate increases | increase in miR-122 levels, maximum average ([2]; study day 8-14, at day 14, compared with study day 1-7): ≤ 2.5 fold | increase in miR-122 levels, maximum ([2]; study days 25-38, animal 2003, at day 38): ≤ 151 fold | increase in miR-122 levels, maximum average ([2]; study days 25-38, animal 2006, at day 31): ≤ 63 fold | increase in miR-122 levels, average ([2]; study days 39-42, following the second cross-over): ≤ 7.8 fold
Compound: COCCNc1cc(NC(=O)N2CCCc3cc(CN4CCN(C)CC4=O)c(C=O)nc32)ncc1C#N [Compound A, N-(5-cyano-4-((2-methoxyethyl)amino)pyridin-2-yl)-7-formyl-6-((4-methyl-2-oxopiperazin-1-yl)methyl)-3,4-dihydro-1,8-naphthyridine-1(2H)-carboxamide]
targets found in kinome wide scan [1]: FGFR4 was the only target | clinical activity [3]: promising clinical activity | recovery of ALT/AST increases evident ([4]; day following cessation of Compound A administration): ≤ 8 days | maximal increase in ALT [4, 6]: 6 fold | maximal increase in AST [4, 6]: ≤ 2 fold | increase in serum ALT activity ([5]; compared with pretest, first dosing period (from day 8)): 3.5 fold | change in serum ALT activity, in general ([5]; dogs): minimal to moderate increases | increase in serum ALT activity ([5]; following the first cross-over): 6 fold | increase in serum ALT activity ([5]; following the second cross-over): 3.5 fold
